Drawing on PubChem BioAssay (NCI), this text covers GI50 and TGI for eight compounds.

SMILES strings stand for the structures. Several values for one entry are separate records, joined by “and”; a condition that tells them apart may be missing. Equal entries are not always repeated.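 Test compounds were applied to cells in 96-well plates for 48 hours at 5 doses. The concentration for 50% growth inhibition is given as GI50. TGI: concentration producing complete growth inhibition.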 Bounds are passed on as bounds.

What all share (experiment): inhibition of tumour cell growth, NCI panel, 48 h
The subject of experiment [1] is HCC-2998 colon.
For experiment [2], the system named is HT29 colon.
For experiment [3], the system named is K-562 leukemia.
Experiment [4] concerns NCI-H226 lung.
In experiment [5] the test system is NCI-H460 lung.
Experiment [6] concerns OVCAR-5 ovarian.
Experiment [7] concerns OVCAR-8 ovarian.
Experiment [8] has as its system SF-268 CNS.
Experiment [9] concerns SK-OV-3 ovarian.
Experiment [10] relates to SNB-19 CNS.

For `O=C(N/N=C\c1ccc(N(CCCl)CCCl)cc1Cl)c1cccnc1`, the GI50 in experiment [1] is 17.2 µM; in experiment [2], 20.2 µM; in experiment [3] it was 7.38 µM; in experiment [4], 0.127 µM; in experiment [5], 0.192 µM; in [6], 0.981 µM. Moreover, the GI50 in experiment [7] is 21.7 µM; in experiment [8] it was 23.4 µM; in experiment [9], 26.6 µM; in [10], 45.1 µM. For the same compound, the TGI in [1] was 68.1 µM; in experiment [2] it was more than 88.4 µM; in experiment [3] it was more than 100 µM; in [4], 0.604 µM; in experiment [5], 12.7 µM; in [6], 11.3 µM. The TGI is more than 88.8 µM in experiment [7], more than 84 µM in experiment [8], more than 100 µM in experiment [9] and more than 100 µM in experiment [10].

As for `COCCNC(=O)c1ccc(-c2nc3ccc4[nH]ncc4c3c3c2CCCC3)cc1`, the GI50 in experiment [1] is 2.98 µM; in [2], 3.11 µM; in [3], 3.86 µM; in experiment [4] it was 2.47 µM; in experiment [5], 1.86 µM; in experiment [6], 6.05 µM. Further, the GI50 in experiment [7] is 2.64 µM; in experiment [8], 2.22 µM; in experiment [9], 0.905 µM; in experiment [10], 3.79 µM. The TGI in [1] was more than 100 µM; in experiment [2], more than 100 µM; in [3] it was more than 100 µM; in experiment [4] it was more than 100 µM; in experiment [5] it was 27.1 µM; in [6] it was more than 100 µM. The TGI in [7] is more than 100 µM; in experiment [8], 39.7 µM; in experiment [9], 5.59 µM; in experiment [10], more than 100 µM.

In the case of `C[CH2][Sn]([CH2]C)([O]C(=O)c1cccc(F)c1)[O][Sn]([CH2]C)([CH2]C)[O]C(=O)c1cccc(F)c1`, the GI50 in experiment [1] was 76.1 µM; in experiment [2], 35.4 µM; in [3], 18 µM; in [4], 18.8 µM; in [5], 33.8 µM; in experiment [6] it was 25.4 µM. For the same compound, the GI50 in experiment [7] was 17.5 µM; in [8], 17.9 µM; in experiment [9], more than 100 µM; in [10], 20.2 µM. For the same compound, the TGI in experiment [1] was more than 100 µM; in experiment [2], more than 100 µM; in [3], 93.4 µM; in [4], 33.8 µM; in [5] it was more than 100 µM; in [6] it was 50.9 µM. In addition, the TGI in experiment [7] was 32.3 µM; in experiment [8], 32.9 µM; in experiment [9] it was more than 100 µM; in experiment [10], 39.5 µM.

Consider `C[CH2][Sn]([Cl])([Cl])[CH2]C`, for which the GI50 in experiment [1] is more than 64.9 µM; in [2], 55.2 µM; in experiment [3], 18.6 µM; in experiment [4], 19.9 µM; in [5], more than 64.3 µM; in experiment [6], more than 100 µM. The GI50 was more than 100 µM in experiment [7], 29.7 µM in experiment [8], more than 100 µM in [9] and 39.5 µM in experiment [10]. The TGI in experiment [1] was more than 100 µM; in [2], more than 100 µM; in experiment [3] it was more than 69 µM; in experiment [4] it was 42.6 µM; in experiment [5] it was more than 100 µM; in experiment [6] it was more than 100 µM. Moreover, the TGI in [7] is more than 100 µM; in [8], 79.1 µM; in experiment [9], more than 100 µM; in experiment [10] it was more than 91.9 µM.

Take `CCCCCN(CCCCC)CC(O)c1cc2c(c3ccccc13)CCCC2` (stereo not given): the GI50 in experiment [1] was 2.54 µM and 4.28 µM; in experiment [2], 1.35 µM and 2.22 µM; in experiment [3], 2.56 µM and 16.3 µM; in [4], 5.64 µM and 11 µM; in [5], 3.4 µM and 4.36 µM; in experiment [6] it was 11.1 µM and 13.5 µM. Also, the GI50 is 11.3 µM and 14.9 µM in experiment [7]; 11.3 µM and 16.5 µM in [8]; 12.4 µM and 17 µM in [9]; 11 µM and 17.9 µM in [10]. In addition, the TGI in [1] was 5.99 µM and 15.6 µM; in experiment [2], 9.48 µM and 13.6 µM; in experiment [3] it was 10.9 µM and > 100 µM; in experiment [4], 20.3 µM and 29.2 µM; in experiment [5], 13.8 µM and 16.1 µM; in experiment [6], 23.6 µM and 31.5 µM. In addition, the TGI in [7] was 26.1 µM and 32.9 µM; in experiment [8] it was 23.9 µM and 36.8 µM; in experiment [9], 24.9 µM and 34.8 µM; in experiment [10], 22.9 µM and 39.4 µM.

Take `N#Cc1nc2cc(F)c(F)cc2nc1-c1ccc(Cl)cc1`: the GI50 in [1] was 3.93 µM; in experiment [2] it was 7.8 µM; in [3], 2.99 µM; in [4], 3.44 µM; in experiment [5], 57.5 µM; in experiment [6], more than 100 µM. For the same compound, the GI50 in experiment [7] is 2.09 µM; in experiment [8], 8.07 µM; in experiment [9], more than 46.7 µM; in [10], 14.5 µM. The TGI in experiment [1] is 17.6 µM; in [2] it was more than 100 µM; in experiment [3], more than 27.8 µM; in experiment [4] it was more than 63.2 µM; in experiment [5], more than 100 µM; in experiment [6], more than 100 µM. The TGI is 4.76 µM in experiment [7], 30.2 µM in experiment [8], more than 88 µM in experiment [9] and more than 85.9 µM in [10].

`CCOc1ccccc1NC(=O)C1=C(C)NC(C)=C(C(=O)Nc2ccccc2OCC)C1c1ccc(NC(C)=O)cc1`: the TGI is 35.7 µM in experiment [1]; more than 100 µM in experiment [2]; more than 100 µM in experiment [3]; more than 100 µM in [4]; more than 100 µM in [5]; more than 100 µM in experiment [6]. Further, the TGI in experiment [7] is more than 100 µM; in experiment [8], more than 100 µM; in [9], 67.5 µM; in experiment [10] it was more than 100 µM.

For the compound `Oc1c(N=Nc2ccccc2)c2ccccc2c2ccc3ccccc3c12`, the TGI in [1], in [2], in experiment [3], in experiment [4], in experiment [5] and in [6] was more than 100 µM each time. Also, the TGI in experiment [7], in experiment [8], in experiment [9] and in experiment [10] was more than 100 µM throughout.
